Results published in PubChem BioAssay AID206 (DTP/NCI, 2004).
Where “and” joins values, the source holds several entries; their conditions need not be identical. Identical values can stand only once. Inconclusive results are not listed.

System: nude mice, HT29 intrarenal xenograft, tumor weight T/C
Assay: NCI In Vivo Anticancer Drug Screen. Data for tumor model HT29;CX-1 Human Adenocarcinoma (MER+) (intrarenal inoculation) in NU/NU Swiss (nude) mice
Conditions: endpoint: mean tumor weight change, higher = larger tumour
Method in brief: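 Endpoint measured as tumor size or survival; ratio reported is treated group over vehicle controls.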

[1] = dose: 100.0 mg/kg/injection, schedule: Q04DX004 (sc), vehicle: saline with Tween-80
[2] = dose: 200.0 mg/kg/injection, schedule: Q04DX004 (sc), vehicle: saline with Tween-80
[3] = dose: 300.0 mg/kg/injection, schedule: Q04DX004 (sc), vehicle: saline with Tween-80
[4] = dose: 37.5 mg/kg/injection, schedule: Q04DX004 (sc), vehicle: saline with Tween-80

Question: `C1OCN2CSCC12` (centres undefined) was tested. Which T/C [1] did it give?
Answer: 39 % of control

Question: And the T/C [2]?
Answer: 80 % of control

Question: What about the T/C (dose: 400.0 mg/kg/injection, schedule: Q04DX004 (sc), vehicle: saline with Tween-80) of the same compound?
Answer: 46 % of control

Question: What does the source list for `Nc1nc2ccc(NCc3ccc(C(=O)NC(CCC(=O)O)C(=O)O)cc3)cc2c(=O)[nH]1` (centres undefined)?
Answer: T/C (dose: 50.0 mg/kg/injection, schedule: Q04DX004 (sc), vehicle: saline with Tween-80): 36 % of control; T/C [1]: 46 % of control and 50 % of control; T/C [2]: 16 % of control and 29 % of control

Question: For `CO[C@H]1C[C@](C)(O)Cc2cc3c(c(O)c21)C(=O)c1c(O)cc2c(c1C3=O)O[C@@H]1O[C@@]2(C)[C@H](O)[C@@H](N(C)C)[C@@H]1O`, which T/C (dose: 50.0 mg/kg/injection, schedule: Q04DX004 (sc), vehicle: other) is on record?
Answer: 99 % of control

Question: How did the T/C [3] turn out when `CCC(=O)Sc1ccccc1C(=O)Nc1ccc(Cl)cc1` was run?
Answer: 122 % of control

Question: What about the T/C (dose: 600.0 mg/kg/injection, schedule: Q04DX004 (sc), vehicle: saline with Tween-80) of the same compound?
Answer: 93 % of control

Question: And the T/C (dose: 1200.0 mg/kg/injection, schedule: Q04DX004 (sc), vehicle: saline with Tween-80)?
Answer: 103 % of control

Question: What about the T/C (dose: 2400.0 mg/kg/injection, schedule: Q04DX004 (sc), vehicle: saline with Tween-80) of the same compound?
Answer: 91 % of control

Question: Which results are given for `COC1CC(CC2CCC(C)C(C(C)C(=O)O)O2)OC2(OC(C)(C3CCC(C)(C4OC(C5OC(O)(CO)C(C)CC5C)CC4C)O3)CC2C)C1C` (centres undefined)?
Answer: T/C (dose: 3.75 mg/kg/injection, schedule: Q04DX004 (sc), vehicle: Klucel (hydroxypropylcellulose) (HPC)): 34 % of control; T/C (dose: 7.5 mg/kg/injection, schedule: Q04DX004 (sc), vehicle: Klucel (hydroxypropylcellulose) (HPC)): 107 % of control

Question: What does the source list for `C=C(NC(=O)C(=C)NC(=O)c1csc(C2=NC3c4csc(n4)C4NC(=O)c5csc(n5)C(C(C)(O)C(C)O)NC(=O)C5CSC(=N5)/C(=C/C)NC(=O)C(C(C)O)NC(=O)c5csc(n5)C3(CC2)NC(=O)C(C)NC(=O)C(=C)NC(=O)C(C)NC(=O)C(C(C)CC)NC2C=Cc3c(C(C)O)cc(nc3C2O)C(=O)OC4C)n1)C(N)=O` (centres undefined)?
Answer: T/C (dose: 200.0 mg/kg/injection, schedule: Q01DX010 (sc), vehicle: Klucel (hydroxypropylcellulose) (HPC)): 34 % of control; T/C (dose: 800.0 mg/kg/injection, schedule: Q01DX010 (sc), vehicle: Klucel (hydroxypropylcellulose) (HPC)): 27 % of control and 49 % of control; T/C (dose: 3200.0 mg/kg/injection, schedule: Q01DX010 (sc), vehicle: Klucel (hydroxypropylcellulose) (HPC)): 50 % of control

Question: For `CC1OC(=O)C(C(C)C)NC(=O)C(C(C)C)OC(=O)C(C(C)C)NC(=O)C(C)OC(=O)C(C(C)C)NC(=O)C(C(C)C)OC(=O)C(C(C)C)NC(=O)C(C)OC(=O)C(C(C)C)NC(=O)C(C(C)C)OC(=O)C(C(C)C)NC1=O` (centres undefined), which T/C (dose: 5.0 mg/kg/injection, schedule: Q01DX010 (sc), vehicle: saline with Tween-80) is on record?
Answer: 87 % of control and 103 % of control

Question: Which T/C [4] does the source give for `CCOC(=O)Nc1cc2c(c(N)n1)N=C(c1ccc(Cl)cc1Cl)CN2` here?
Answer: 92 % of control

Question: What about the T/C (dose: 75.0 mg/kg/injection, schedule: Q04DX004 (sc), vehicle: saline with Tween-80) of the same compound?
Answer: 150 % of control

Question: And the T/C (dose: 150.0 mg/kg/injection, schedule: Q04DX004 (sc), vehicle: saline with Tween-80)?
Answer: 78 % of control

Question: And the T/C [3]?
Answer: 83 % of control

Question: Which T/C (dose: 4.0 mg/kg/injection, schedule: Q04DX004 (ip), vehicle: saline) does the source give for `N[C@@H](Cc1ccc(N(CCCl)CCCl)cc1)C(=O)O` here?
Answer: 47 % of control

Question: What about the T/C (dose: 6.0 mg/kg/injection, schedule: Q04DX004 (ip), vehicle: saline) of the same compound?
Answer: 9 % of control

Question: And the T/C (dose: 9.0 mg/kg/injection, schedule: Q04DX004 (ip), vehicle: saline)?
Answer: -5 % of control

Question: For `COc1ccc(S(=O)(=O)N=N/C=C2\C=CC=CN2O)cc1OC`, which T/C (dose: 18.75 mg/kg/injection, schedule: Q04DX004 (sc), vehicle: saline with Tween-80) is on record?
Answer: 61 % of control

Question: What about the T/C [4] of the same compound?
Answer: 54 % of control

Question: And the T/C [3]?
Answer: 55 % of control

Question: `COc1cc(NCc2ccc3nc(N)nc(N)c3c2C)cc(OC)c1OC` was tested. Which T/C (dose: 9.35 mg/kg/injection, schedule: Q04DX004 (sc), vehicle: water) did it give?
Answer: 88 % of control

Question: And the T/C (dose: 10.0 mg/kg/injection, schedule: Q01DX010 (sc), vehicle: sodium bicarbonate)?
Answer: 35 % of control

Question: And the T/C (dose: 18.7 mg/kg/injection, schedule: Q04DX004 (sc), vehicle: water)?
Answer: 117 % of control

Question: What about the T/C (dose: 37.5 mg/kg/injection, schedule: Q04DX004 (sc), vehicle: water) of the same compound?
Answer: 32 % of control

Question: Which results are given for `C=CCOCC1CO1` (centres undefined)?
Answer: T/C (dose: 75.0 mg/kg/injection, schedule: Q04DX004 (sc), vehicle: saline): 120 % of control; T/C (dose: 150.0 mg/kg/injection, schedule: Q04DX004 (sc), vehicle: saline): 100 % of control; T/C (dose: 300.0 mg/kg/injection, schedule: Q04DX004 (sc), vehicle: saline): 54 % of control
